According to ChEMBL document CHEMBL5131465, “Pyrazoline analogues: Design, synthesis, and evaluation of anti-osteoporosis activity” (Bioorg Med Chem Lett, 2022):
The source made the active and inactive calls.

Assays:
Format in all cases: functional, cell-based
Calvarial osteoblast [1] = experiment: Induction of osteoblast differentiation in mouse calvarial osteoblasts assessed as increase in ALP activity at 0.000001 to 1 uM by spectrophotometric analysis; conditions: dose lower 1e-06 µM, dose upper 1.0 µM
HBMSC = experiment: Induction of new bone formation in BMSC cells (unknown origin) assessed as increase in formation of mineralized nodules at 1 to 100 pM; conditions: Homo sapiens, dose 1-100 pM
Calvarial osteoblast [2] = experiment: Induction of osteoblast differentiation in mouse calvarial osteoblasts assessed as increase in RUNX-2 mRNA expression at 1 to 100 pM after 48 hrs by qPCR analysis; conditions: dose 1-100 pM
Calvarial osteoblast [3] = experiment: Induction of osteoblast differentiation in mouse calvarial osteoblasts assessed as increase in Type-1 collagen mRNA expression at 1 to 100 pM after 48 hrs by qPCR analysis; conditions: dose 1-100 pM
Calvarial osteoblast [4] = experiment: Induction of osteoblast differentiation in mouse calvarial osteoblasts assessed as increase in BMP2 protein expression at 1 to 100 pM after 48 hrs by western blot analysis; conditions: dose 1-100 pM
Calvarial osteoblast [5] = experiment: Induction of osteoblast differentiation in mouse calvarial osteoblasts assessed as increase in cell viability at 0.000001 to 1 uM by MTT assay; conditions: dose lower 1e-06 µM, dose upper 1.0 µM
Calvarial osteoblast [6] = experiment: Cytoprotective activity against serum deprivation-induced apoptosis in mouse calvarial osteoblasts assessed as reduction in apoptotic cells at 1 to 100 pM by Annexin/PI staining based flow cytometric analysis; conditions: dose 1-100 pM
Calvarial osteoblast [7] = experiment: Induction of osteoblast differentiation in mouse calvarial osteoblasts assessed as increase in Type-1 collagen protein expression at 1 to 100 pM after 48 hrs by western blot analysis; conditions: dose 1-100 pM
Calvarial osteoblast [8] = experiment: Induction of osteoblast differentiation in mouse calvarial osteoblasts assessed as increase in BMP2 mRNA expression at 1 to 100 pM after 48 hrs by qPCR analysis; conditions: dose 1-100 pM
Calvarial osteoblast [9] = experiment: Cytoprotective activity against serum deprivation-induced apoptosis in mouse calvarial osteoblasts assessed as increase in Bcl-2 protein expression at 1 to 100 pM by western blot analysis; conditions: dose 1-100 pM
Calvarial osteoblast [10] = experiment: Induction of new bone formation in mouse calvarial osteoblasts assessed as increase in intracellular calcium level at 1 to 100 pM by Fluo-4AM dye based assay; conditions: dose 1-100 pM
Calvarial osteoblast [11] = experiment: Induction of osteoblast differentiation in mouse calvarial osteoblasts assessed as increase in RUNX2 protein expression at 1 to 100 pM after 48 hrs by western blot analysis; conditions: dose 1-100 pM
Calvarial osteoblast [12] = experiment: Cytoprotective activity against serum deprivation-induced apoptosis in mouse calvarial osteoblasts assessed as reduction in BAX protein expression at 1 to 100 pM by western blot analysis; conditions: dose 1-100 pM

Measured: Activity

CC(=O)N1N=C(c2c(O)ccc3c2OC(C)(C)C=C3)CC1c1ccc(Cl)cc1 (stereo not drawn)
active: Calvarial osteoblast [1]

CC1(C)C=Cc2ccc(O)c(-c3cc(-c4ccc(Cl)cc4)on3)c2O1
active: Calvarial osteoblast [1]

CC1(C)C=Cc2c(ccc(C3=NN(c4ccccc4)C(c4ccc(Cl)cc4)C3)c2O)O1 (stereo not drawn)
active: Calvarial osteoblast [1]

CC1(C)C=Cc2c(ccc(C(=O)/C=C/c3ccc(Cl)cc3)c2O)O1
active: Calvarial osteoblast [1]

CC(C)=CCC1(C)C=Cc2ccc(O)c(C(=O)/C=C/c3ccc(Cl)cc3)c2O1 (stereo not drawn)
active: Calvarial osteoblast [1]

CC1(C)C=Cc2ccc(O)c(C3=NNC(c4ccc(Cl)cc4)C3)c2O1 (stereo not drawn)
active: all assays above
